± gives the expanded uncertainty stated by the source.
Columns and labels:
[1] = xn = mol fraction of the nth substance listed; conditions: 318.15 K, 101.3 kPa, Liquid
[2] = excess molar enthalpy (molar enthalpy of mixing); xn = mol fraction of the nth substance listed; conditions: 318.15 K, 101.3 kPa, Liquid

## CCCCCCCCCCCCCCC [pentadecane] + CCCCOC(C)=O
[1]; x2 = 0.1004
  excess molar volume: 3.55e-07 ± 1.7e-08 m3/mol
[1]; x2 = 0.1982
  excess molar volume: 6.25e-07 ± 1.8e-08 m3/mol
[1]; x2 = 0.2765
  excess molar volume: 7.99e-07 ± 1.9e-08 m3/mol
[1]; x2 = 0.3418
  excess molar volume: 9.17e-07 ± 2e-08 m3/mol
[1]; x2 = 0.417
  excess molar volume: 9.97e-07 ± 2e-08 m3/mol
[1]; x2 = 0.4757
  excess molar volume: 1.034e-06 ± 2e-08 m3/mol
[1]; x2 = 0.5299
  excess molar volume: 1.057e-06 ± 2e-08 m3/mol
[1]; x2 = 0.5843
  excess molar volume: 1.052e-06 ± 2e-08 m3/mol
[1]; x2 = 0.6319
  excess molar volume: 1.024e-06 ± 2e-08 m3/mol
[1]; x2 = 0.6767
  excess molar volume: 9.8e-07 ± 2e-08 m3/mol
[1]; x2 = 0.7173
  excess molar volume: 9.26e-07 ± 2e-08 m3/mol
[1]; x2 = 0.7606
  excess molar volume: 8.62e-07 ± 2e-08 m3/mol
[1]; x2 = 0.7836
  excess molar volume: 8.17e-07 ± 1.9e-08 m3/mol
[1]; x2 = 0.8619
  excess molar volume: 5.97e-07 ± 1.8e-08 m3/mol
[1]; x2 = 0.9208
  excess molar volume: 3.91e-07 ± 1.7e-08 m3/mol
[1]; x2 = 0.9647
  excess molar volume: 1.72e-07 ± 1.6e-08 m3/mol
[2]; x2 = 0.0884
  excess molar enthalpy: 0.0988 ± 0.00191 kcal/mol
[2]; x2 = 0.1775
  excess molar enthalpy: 0.179 ± 0.00311 kcal/mol
[2]; x2 = 0.2593
  excess molar enthalpy: 0.249 ± 0.0043 kcal/mol
[2]; x2 = 0.3266
  excess molar enthalpy: 0.29 ± 0.00478 kcal/mol
[2]; x2 = 0.3936
  excess molar enthalpy: 0.322 ± 0.00526 kcal/mol
[2]; x2 = 0.4468
  excess molar enthalpy: 0.341 ± 0.00574 kcal/mol
[2]; x2 = 0.4996
  excess molar enthalpy: 0.353 ± 0.00574 kcal/mol
[2]; x2 = 0.5472
  excess molar enthalpy: 0.356 ± 0.00598 kcal/mol
[2]; x2 = 0.5896
  excess molar enthalpy: 0.353 ± 0.00574 kcal/mol
[2]; x2 = 0.6217
  excess molar enthalpy: 0.345 ± 0.00574 kcal/mol
[2]; x2 = 0.6332
  excess molar enthalpy: 0.341 ± 0.00574 kcal/mol
[2]; x2 = 0.6756
  excess molar enthalpy: 0.322 ± 0.00526 kcal/mol
[2]; x2 = 0.7198
  excess molar enthalpy: 0.298 ± 0.00502 kcal/mol
[2]; x2 = 0.7661
  excess molar enthalpy: 0.269 ± 0.00454 kcal/mol
[2]; x2 = 0.8132
  excess molar enthalpy: 0.232 ± 0.00406 kcal/mol
[2]; x2 = 0.8631
  excess molar enthalpy: 0.187 ± 0.00335 kcal/mol
[2]; x2 = 0.9114
  excess molar enthalpy: 0.132 ± 0.00239 kcal/mol
[2]; x2 = 0.9607
  excess molar enthalpy: 0.0673 ± 0.00143 kcal/mol

## CCCCCCCCCCCCCCCCC [heptadecane] + CCCCCOC(C)=O
[1]; x2 = 0.1194
  excess molar volume: 3.74e-07 ± 1.7e-08 m3/mol
[1]; x2 = 0.1753
  excess molar volume: 5.21e-07 ± 1.8e-08 m3/mol
[1]; x2 = 0.2989
  excess molar volume: 7.64e-07 ± 1.9e-08 m3/mol
[1]; x2 = 0.3689
  excess molar volume: 8.67e-07 ± 2e-08 m3/mol
[1]; x2 = 0.421
  excess molar volume: 9.1e-07 ± 2e-08 m3/mol
[1]; x2 = 0.4657
  excess molar volume: 9.43e-07 ± 2e-08 m3/mol
[1]; x2 = 0.5081
  excess molar volume: 9.6e-07 ± 2e-08 m3/mol
[1]; x2 = 0.5464
  excess molar volume: 9.64e-07 ± 2e-08 m3/mol
[1]; x2 = 0.6072
  excess molar volume: 9.39e-07 ± 2e-08 m3/mol
[1]; x2 = 0.6743
  excess molar volume: 8.96e-07 ± 2e-08 m3/mol
[1]; x2 = 0.7316
  excess molar volume: 8.42e-07 ± 1.9e-08 m3/mol
[1]; x2 = 0.7894
  excess molar volume: 7.23e-07 ± 1.9e-08 m3/mol
[1]; x2 = 0.8384
  excess molar volume: 6.22e-07 ± 1.8e-08 m3/mol
[1]; x2 = 0.8842
  excess molar volume: 4.84e-07 ± 1.8e-08 m3/mol
[1]; x2 = 0.9288
  excess molar volume: 3.29e-07 ± 1.7e-08 m3/mol
[1]; x2 = 0.9702
  excess molar volume: 1.42e-07 ± 1.6e-08 m3/mol
[2]; x2 = 0.0881
  excess molar enthalpy: 0.101 ± 0.00194 kcal/mol
[2]; x2 = 0.1856
  excess molar enthalpy: 0.188 ± 0.00335 kcal/mol
[2]; x2 = 0.2815
  excess molar enthalpy: 0.259 ± 0.0043 kcal/mol
[2]; x2 = 0.3678
  excess molar enthalpy: 0.306 ± 0.00502 kcal/mol
[2]; x2 = 0.4492
  excess molar enthalpy: 0.331 ± 0.0055 kcal/mol
[2]; x2 = 0.5202
  excess molar enthalpy: 0.339 ± 0.00574 kcal/mol
[2]; x2 = 0.5818
  excess molar enthalpy: 0.337 ± 0.0055 kcal/mol
[2]; x2 = 0.6246
  excess molar enthalpy: 0.326 ± 0.0055 kcal/mol
[2]; x2 = 0.6651
  excess molar enthalpy: 0.308 ± 0.00502 kcal/mol
[2]; x2 = 0.7105
  excess molar enthalpy: 0.285 ± 0.00478 kcal/mol
[2]; x2 = 0.7575
  excess molar enthalpy: 0.258 ± 0.0043 kcal/mol
[2]; x2 = 0.807
  excess molar enthalpy: 0.223 ± 0.00382 kcal/mol
[2]; x2 = 0.8571
  excess molar enthalpy: 0.18 ± 0.00311 kcal/mol
[2]; x2 = 0.905
  excess molar enthalpy: 0.13 ± 0.00239 kcal/mol
[2]; x2 = 0.9532
  excess molar enthalpy: 0.0725 ± 0.00151 kcal/mol

## CCCCCCCCC [nonane] + COC(C)=O
[1]; x2 = 0.1052
  excess molar volume: 6.91e-07 ± 1.9e-08 m3/mol
[1]; x2 = 0.2035
  excess molar volume: 1.199e-06 ± 2.1e-08 m3/mol
[1]; x2 = 0.2896
  excess molar volume: 1.534e-06 ± 2.3e-08 m3/mol
[1]; x2 = 0.3598
  excess molar volume: 1.693e-06 ± 2.3e-08 m3/mol
[1]; x2 = 0.4249
  excess molar volume: 1.805e-06 ± 2.4e-08 m3/mol
[1]; x2 = 0.4901
  excess molar volume: 1.864e-06 ± 2.4e-08 m3/mol
[1]; x2 = 0.547
  excess molar volume: 1.881e-06 ± 2.4e-08 m3/mol
[1]; x2 = 0.5991
  excess molar volume: 1.837e-06 ± 2.4e-08 m3/mol
[1]; x2 = 0.6418
  excess molar volume: 1.774e-06 ± 2.4e-08 m3/mol
[1]; x2 = 0.6901
  excess molar volume: 1.658e-06 ± 2.3e-08 m3/mol
[1]; x2 = 0.7312
  excess molar volume: 1.562e-06 ± 2.3e-08 m3/mol
[1]; x2 = 0.7687
  excess molar volume: 1.431e-06 ± 2.2e-08 m3/mol
[1]; x2 = 0.7969
  excess molar volume: 1.305e-06 ± 2.2e-08 m3/mol
[1]; x2 = 0.8736
  excess molar volume: 9.39e-07 ± 2e-08 m3/mol
[1]; x2 = 0.925
  excess molar volume: 6.28e-07 ± 1.8e-08 m3/mol
[1]; x2 = 0.9663
  excess molar volume: 3.07e-07 ± 1.7e-08 m3/mol
[2]; x2 = 0.0822
  excess molar enthalpy: 0.131 ± 0.00239 kcal/mol
[2]; x2 = 0.1628
  excess molar enthalpy: 0.241 ± 0.00406 kcal/mol
[2]; x2 = 0.2353
  excess molar enthalpy: 0.335 ± 0.0055 kcal/mol
[2]; x2 = 0.2999
  excess molar enthalpy: 0.398 ± 0.00645 kcal/mol
[2]; x2 = 0.364
  excess molar enthalpy: 0.448 ± 0.00741 kcal/mol
[2]; x2 = 0.4195
  excess molar enthalpy: 0.481 ± 0.00789 kcal/mol
[2]; x2 = 0.4714
  excess molar enthalpy: 0.497 ± 0.00813 kcal/mol
[2]; x2 = 0.5122
  excess molar enthalpy: 0.504 ± 0.00813 kcal/mol
[2]; x2 = 0.549
  excess molar enthalpy: 0.507 ± 0.00813 kcal/mol
[2]; x2 = 0.5847
  excess molar enthalpy: 0.506 ± 0.00813 kcal/mol
[2]; x2 = 0.621
  excess molar enthalpy: 0.502 ± 0.00813 kcal/mol
[2]; x2 = 0.6618
  excess molar enthalpy: 0.49 ± 0.00789 kcal/mol
[2]; x2 = 0.7017
  excess molar enthalpy: 0.463 ± 0.00765 kcal/mol
[2]; x2 = 0.7452
  excess molar enthalpy: 0.433 ± 0.00717 kcal/mol
[2]; x2 = 0.7891
  excess molar enthalpy: 0.388 ± 0.00645 kcal/mol
[2]; x2 = 0.8353
  excess molar enthalpy: 0.343 ± 0.00574 kcal/mol
[2]; x2 = 0.8771
  excess molar enthalpy: 0.289 ± 0.00478 kcal/mol
[2]; x2 = 0.9219
  excess molar enthalpy: 0.208 ± 0.00359 kcal/mol
[2]; x2 = 0.9643
  excess molar enthalpy: 0.103 ± 0.00203 kcal/mol
